Experimental data published in patent publication US20140259881A1, “EXTERMINATION TECHNIQUES UTILIZING TERMITE EGG VOLATILE CALLING PHEROMONE AND QUEEN PHEROMONE” (National University Corporation Okayama University, priority 2009, published 2014).
“Also recorded” adds a separate entry of the source.

Tests used:
termite = details: patent documents 2 and 3; cited from earlier work
[1] = test system: Reticulitermes speratus worker termites; test: Rate of carrying mimic eggs coated with reference pheromone plus volatile test sample into the egg mass; format: in vivo; details: 10% aqueous solution of sample added to lysozyme + β-glucosidase reference pheromone on 0.5 mm glass beads, 25° C., compared to no addition, Tukey-Kramer HSD test
Method: 2.0 mg of white-egg lysozyme and 1.0 mg of β-glucosidase were dissolved in a 50% aqueous solution of glycerol (a mixture of lysozyme and β-glucosidase). To this reference pheromone solution were added a 10% aqueous solution of each of the following volatile ingredient samples to examine the effect of enhancing the activity of carrying mimic eggs. The added samples were: butyl butyrate, 1-butanol, 2-butyl butyrate, 2-butanol, 2-methyl-1-butanol, and n-butyl acetate.
To 100 glass beads having a diameter of 0.5 mm were added 2.0 μL/bead of the above-described reference pheromone solution and 2.0 μL/bead of each of the test sample solutions and mixed well for coating the surface of the beads with each test sample.
At 24 hours after the start of the experiment, the rate of carrying mimic eggs into the egg mass was determined (for each of the test samples, experiments were made on the same procedures). Three repetitions were made for each treatment. Carrying rates were subjected to arcsine-root transformation, followed by statistical comparison by analysis of variance and Tukey-Kramer HSD test. […] FIGS. 6 to 11 show rates of carrying mimic eggs coated with each of the test samples into the egg mass after 24 hours.

[2] = test system: Reticulitermes speratus worker termites; test: Inhibitory effect on the differentiation into new termite queens by queen volatile pheromone samples; details: volatile from unglazed ball, added every day; 25 days; 25° C.; compared to controls; Tukey-Kramer HSD test
[3] = test system: Reticulitermes speratus worker termites; test: Rate of carrying mimic eggs coated with reference pheromone plus volatile test sample into the egg mass; format: in vivo; details: preliminary experiments

Row | Molecule | activity of carrying mimic eggs / egg recognition activity (rate of carrying mimic eggs after 24 hours) [1] | other results
1 | lysozyme |  | egg-recognition pheromone activity alone (termite): demonstrated to have egg-recognition pheromone activity alone
2 | CCCCOC(=O)CCC [butyl butyrate] | no statistical significance, but were observed to have a tendency to enhance the activity of carrying mimic eggs; also recorded: enhance the activity of carrying mimic eggs, as compared to no addition, but there was no difference of statistical significance | 
3 | CCCCOC(C)=O [n-butyl acetate, reference compound] | no effect of enhancing the activity of carrying mimic eggs | differentiation from worker termite into new termite queens [2]: no effect of inhibiting the differentiation into new termite queens
4 | CCCCO [1-butanol] | remarkable increase in the egg recognition activity; also recorded: significantly enhance the activity of carrying mimic eggs | 
5 | CCCC(=O)O [butyric acid] |  | effect of increasing the egg-carrying activity [3]: no effect of increasing the egg-carrying activity
6 | CCC(C)CO (stereo not drawn) [2-methyl-1-butanol] | remarkable increase in the egg recognition activity; also recorded: significantly enhance the activity of carrying mimic eggs | 
7 | CCCC(=O)OC(C)CC (stereo not drawn) [2-butyl butyrate] | no statistical significance, but were observed to have a tendency to enhance the activity of carrying mimic eggs; also recorded: enhance the activity of carrying mimic eggs, as compared to no addition, but there was no difference of statistical significance | 
8 | CCC(C)O (stereo not drawn) [2-butanol] | remarkable increase in the egg recognition activity; also recorded: significantly enhance the activity of carrying mimic eggs | 
